# Experimental data as given in the supplement of paper PMC9663587.
# Columns and labels:
# [1] = compound: C[C@@H]1COCCN1c1cc(C2([S@](C)(=N)=O)CC2)nc(-c2cc[nH]c3nccc2-3)n1 [AZD6738]
# [2] = compound: CN(C)C/C=C/C(=O)Nc1ccc(O[C@@H]2CCC[C@@H](Nc3ncc(Cl)c(-c4c[nH]c5ccccc45)n3)C2)cc1 [BSJ-01-175]
# [3] = compound: Cc1cc(Nc2ncc(Cl)c(Nc3ccccc3S(=O)(=O)C(C)C)n2)c(OC(C)C)cc1C1CCNCC1 [Ceritinib/LDK378]
# [4] = compound: COc1cc2c(Oc3ccc4[nH]c(C)cc4c3F)ncnc2cc1OCCCN1CCCC1 [Cediranib/AZD2171]
# [5] = compound: O=C1NC(=O)[C@@H](c2cn3c4c(cccc24)CCC3)[C@@H]1c1c[nH]c2ccccc12 [Tivantinib/ARQ197]
# [6] = compound: CNCc1ccc(-c2[nH]c3cc(F)cc4c3c2CCNC4=O)cc1 [Rucaparib]
# [7] = compound: CC(=O)O[C@H]1C(=O)[C@@]2(C)[C@H]([C@H](OC(=O)c3ccccc3)[C@]3(O)C[C@H](OC(=O)[C@H](O)[C@@H](NC(=O)c4ccccc4)c4ccccc4)C(C)=C1C3(C)C)[C@]1(OC(C)=O)CO[C@@H]1C[C@@H]2O [Paclitaxel]
# [8] = compound: T1, CN(C)C/C=C/C(=O)Nc1ccc(C(=O)N2CCC[C@@H](Nc3ncc(Cl)c(-c4c[nH]c5ccccc45)n3)C2)cc1 [THZ531]
# [9] = compound: CS(=O)(=O)N1CCN(Cc2cc3nc(-c4cccc5[nH]ncc45)nc(N4CCOCC4)c3s2)CC1 [Pictilisib/GDC0941]
# [10] = compound: CN(C)C/C=C/C(=O)Nc1ccc(C(=O)Nc2cccc(Nc3ncc(Cl)c(-c4c[nH]c5ccccc45)n3)c2)cc1 [THZ1]; assay: GR value, 72 h; higher = faster growth (1 = untreated, <0 = killing);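 further: breast cancer and non-malignant breast epithelial lines, nine half-log doses, viable cells counted by Hoechst and LIVE/DEAD dye imaging versus time-zero plates and DMSO controls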
# [11] = compound: C=CC(=O)Nc1ccc(C(=O)Nc2[nH]nc3c2CN(C(=O)N[C@H](CN(C)C)c2ccccc2)C3(C)C)cc1 [YKL-5-124]; assay: as above
# [12] = compound: CCN1CCN(Cc2ccc(Nc3ncc(F)c(-c4cc(F)c5nc(C)n(C(C)C)c5c4)n3)nc2)CC1; assay: as above
# [13] = compound: T1, THZ531; assay: as above
# [14] = compound: CCc1cnn2c(NCc3ccc[n+]([O-])c3)cc(N3CCCC[C@H]3CCO)nc12; assay: as above
# [15] = compound: CC(=O)c1c(C)c2cnc(Nc3ccc(N4CCNCC4)cn3)nc2n(C2CCCC2)c1=O; assay: as above
# [16] = compound: CC(=O)c1c(C)c2cnc(Nc3ccc(N4CCN(CCOCCOCCOCCNC(=O)COc5cccc6c5C(=O)N(C5CCC(=O)NC5=O)C6=O)CC4)cn3)nc2n(C2CCCC2)c1=O [BSJ-03-123]; assay: as above
# [17] = compound: CN(C)C(=O)c1cc2cnc(Nc3ccc(N4CCNCC4)cn3)nc2n1C1CCCC1 [LEE011/Ribociclib]; assay: as above
# 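Wherever GR50, 72 h is given: breast cancer and non-malignant breast epithelial cell lines, Deep Dye Drop or Dye Drop imaging, nine half-log doses, GR normalized to time-zero plates and DMSO-only controls.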
cell line,measurement,setting,value
SUM190PT,"GR50, 72 h",[1],4.09 µM
same,"GR50, 72 h",[2],0.00573 µM
same,"GR50, 72 h",[3],0.528 µM
same,"GR50, 72 h",[4],> 10 µM
same,"GR50, 72 h",[5],0.0433 µM
same,"GR50, 72 h",[6],> 10 µM
same,"GR50, 72 h",[7],0.000878 µM
same,"GR50, 72 h",[8],0.0528 µM
same,"GR50, 72 h",[9],3.1 µM
same,GR value,[10]; 0.0001 µM,1.05 GR
same,GR value,[10]; 0.0003162 µM,0.839 GR
same,GR value,[10]; 0.001 µM,0.923 GR
same,GR value,[10]; 0.003162 µM,0.842 GR
same,GR value,[10]; 0.01 µM,0.0733 GR
same,GR value,[10]; 0.03162 µM,-0.46 GR
same,GR value,[10]; 0.1 µM,-0.462 GR
same,GR value,[10]; 0.3162 µM,-0.331 GR
same,GR value,[10]; 1 µM,-0.467 GR
same,GR value,[11]; 0.001 µM,0.557 GR
same,GR value,[11]; 0.003162 µM,0.365 GR
same,GR value,[11]; 0.01 µM,0.267 GR
same,GR value,[11]; 0.03162 µM,0.198 GR
same,GR value,[11]; 0.1 µM,0.212 GR
same,GR value,[11]; 0.3162 µM,0.0489 GR
same,GR value,[11]; 1 µM,0.154 GR
same,GR value,[11]; 3.162 µM,0.102 GR
same,GR value,[11]; 10 µM,-0.42 GR
same,GR value,[12]; 0.001 µM,0.779 GR
same,GR value,[12]; 0.003162 µM,0.586 GR
same,GR value,[12]; 0.01 µM,0.444 GR
same,GR value,[12]; 0.03162 µM,0.349 GR
same,GR value,[12]; 0.1 µM,0.395 GR
same,GR value,[12]; 0.3162 µM,0.309 GR
same,GR value,[12]; 1 µM,0.343 GR
same,GR value,[12]; 3.162 µM,0.259 GR
same,GR value,[12]; 10 µM,-0.611 GR
same,GR value,[13]; 0.0001 µM,1.07 GR
same,GR value,[13]; 0.0003162 µM,0.955 GR
same,GR value,[13]; 0.001 µM,0.949 GR
same,GR value,[13]; 0.003162 µM,0.966 GR
same,GR value,[13]; 0.01 µM,1.12 GR
same,GR value,[13]; 0.03162 µM,0.889 GR
same,GR value,[13]; 0.1 µM,-0.322 GR
same,GR value,[13]; 0.3162 µM,-0.725 GR
same,GR value,[13]; 1 µM,-0.492 GR
same,GR value,[14]; 0.0001 µM,0.917 GR
same,GR value,[14]; 0.0003162 µM,0.931 GR
same,GR value,[14]; 0.001 µM,0.951 GR
same,GR value,[14]; 0.003162 µM,1.06 GR
same,GR value,[14]; 0.01 µM,0.98 GR
same,GR value,[14]; 0.03162 µM,-0.207 GR
same,GR value,[14]; 0.1 µM,-0.627 GR
same,GR value,[14]; 0.3162 µM,-0.643 GR
same,GR value,[14]; 1 µM,-0.724 GR
same,GR value,[15]; 0.0003162 µM,0.986 GR
same,GR value,[15]; 0.001 µM,1.02 GR
same,GR value,[15]; 0.003162 µM,1.09 GR
same,GR value,[15]; 0.01 µM,0.949 GR
same,GR value,[15]; 0.03162 µM,0.62 GR
same,GR value,[15]; 0.1 µM,0.316 GR
same,GR value,[15]; 0.3162 µM,0.35 GR
same,GR value,[15]; 1 µM,0.336 GR
same,GR value,[15]; 3.162 µM,0.378 GR
same,GR value,[16]; 0.001 µM,0.831 GR
same,GR value,[16]; 0.003162 µM,0.729 GR
same,GR value,[16]; 0.01 µM,0.533 GR
same,GR value,[16]; 0.03162 µM,0.491 GR
same,GR value,[16]; 0.1 µM,0.451 GR
same,GR value,[16]; 0.3162 µM,0.371 GR
same,GR value,[16]; 1 µM,0.396 GR
same,GR value,[16]; 3.162 µM,0.354 GR
same,GR value,[16]; 10 µM,-0.286 GR
same,GR value,[17]; 0.001 µM,0.777 GR
same,GR value,[17]; 0.003162 µM,0.632 GR
same,GR value,[17]; 0.01 µM,0.576 GR
same,GR value,[17]; 0.03162 µM,0.542 GR
same,GR value,[17]; 0.1 µM,0.453 GR
same,GR value,[17]; 0.3162 µM,0.46 GR
same,GR value,[17]; 1 µM,0.0072 GR
same,GR value,[17]; 3.162 µM,0.199 GR
same,GR value,[17]; 10 µM,0.383 GR
UACC812,"GR50, 72 h",[1],5.82 µM
same,"GR50, 72 h",[2],0.332 µM
same,"GR50, 72 h",[3],3.48 µM
same,"GR50, 72 h",[4],1.04 µM
same,"GR50, 72 h",[5],0.175 µM
same,"GR50, 72 h",[6],> 10 µM
same,"GR50, 72 h",[7],0.00042 µM
same,"GR50, 72 h",[8],> 1 µM
same,"GR50, 72 h",[9],0.106 µM
same,GR value,[10]; 0.0001 µM,1.23 GR
same,GR value,[10]; 0.0003162 µM,1.05 GR
same,GR value,[10]; 0.001 µM,1.18 GR
same,GR value,[10]; 0.003162 µM,0.811 GR
same,GR value,[10]; 0.01 µM,1.1 GR
same,GR value,[10]; 0.03162 µM,0.842 GR
same,GR value,[10]; 0.1 µM,1.1 GR
same,GR value,[10]; 0.3162 µM,1.01 GR
same,GR value,[10]; 1 µM,-0.293 GR
same,GR value,[11]; 0.001 µM,0.609 GR
same,GR value,[11]; 0.003162 µM,0.318 GR
same,GR value,[11]; 0.01 µM,0.142 GR
same,GR value,[11]; 0.03162 µM,-0.122 GR
same,GR value,[11]; 0.1 µM,-0.106 GR
same,GR value,[11]; 0.3162 µM,-0.151 GR
same,GR value,[11]; 1 µM,0.0505 GR
same,GR value,[11]; 3.162 µM,-0.246 GR
same,GR value,[11]; 10 µM,-0.423 GR
same,GR value,[12]; 0.001 µM,0.849 GR
same,GR value,[12]; 0.003162 µM,0.562 GR
same,GR value,[12]; 0.01 µM,0.349 GR
same,GR value,[12]; 0.03162 µM,-0.073 GR
same,GR value,[12]; 0.1 µM,-0.212 GR
same,GR value,[12]; 0.3162 µM,-0.252 GR
same,GR value,[12]; 1 µM,-0.319 GR
same,GR value,[12]; 3.162 µM,-0.407 GR
same,GR value,[12]; 10 µM,-0.565 GR
same,GR value,[13]; 0.0001 µM,0.819 GR
same,GR value,[13]; 0.0003162 µM,1.04 GR
same,GR value,[13]; 0.001 µM,0.807 GR
same,GR value,[13]; 0.003162 µM,0.754 GR
same,GR value,[13]; 0.01 µM,0.851 GR
same,GR value,[13]; 0.03162 µM,0.958 GR
same,GR value,[13]; 0.1 µM,0.942 GR
same,GR value,[13]; 0.3162 µM,1.17 GR
same,GR value,[13]; 1 µM,0.547 GR
same,GR value,[14]; 0.0001 µM,1.17 GR
same,GR value,[14]; 0.0003162 µM,1.22 GR
same,GR value,[14]; 0.001 µM,1.63 GR
same,GR value,[14]; 0.003162 µM,1.63 GR
same,GR value,[14]; 0.01 µM,1.28 GR
same,GR value,[14]; 0.03162 µM,-0.347 GR
same,GR value,[14]; 0.1 µM,-0.932 GR
same,GR value,[14]; 0.3162 µM,-0.948 GR
same,GR value,[14]; 1 µM,-0.949 GR
same,GR value,[15]; 0.0003162 µM,1.11 GR
same,GR value,[15]; 0.001 µM,0.781 GR
same,GR value,[15]; 0.003162 µM,0.839 GR
same,GR value,[15]; 0.01 µM,0.637 GR
same,GR value,[15]; 0.03162 µM,0.409 GR
same,GR value,[15]; 0.1 µM,0.173 GR
same,GR value,[15]; 0.3162 µM,0.0192 GR
same,GR value,[15]; 1 µM,-0.127 GR
same,GR value,[15]; 3.162 µM,-0.162 GR
same,GR value,[16]; 0.001 µM,0.833 GR
same,GR value,[16]; 0.003162 µM,0.862 GR
same,GR value,[16]; 0.01 µM,0.699 GR
same,GR value,[16]; 0.03162 µM,0.711 GR
same,GR value,[16]; 0.1 µM,0.74 GR
same,GR value,[16]; 0.3162 µM,0.887 GR
same,GR value,[16]; 1 µM,0.48 GR
same,GR value,[16]; 3.162 µM,0.408 GR
same,GR value,[16]; 10 µM,-0.328 GR
same,GR value,[17]; 0.001 µM,0.753 GR
same,GR value,[17]; 0.003162 µM,0.55 GR
same,GR value,[17]; 0.01 µM,0.569 GR
same,GR value,[17]; 0.03162 µM,0.333 GR
same,GR value,[17]; 0.1 µM,0.309 GR
same,GR value,[17]; 0.3162 µM,0.218 GR
same,GR value,[17]; 1 µM,0.148 GR
same,GR value,[17]; 3.162 µM,0.171 GR
same,GR value,[17]; 10 µM,0.0704 GR
